Reference: ChEMBL document CHEMBL1122492, “Synthesis of iodine-125 labeled (+/-)-15-(4-azidobenzyl)carazolol: a potent beta-adrenergic photoaffinity probe” (J Med Chem, 1983)

How the values were obtained:
[1] = Dissociation constant against beta adrenergic receptor of frog erythrocyte membranes
[2] = Dissociation constant against beta adrenergic receptor of turkey erythrocyte membranes
[3] = Dissociation constant against beta adrenergic receptor

| Kd [1] | Kd [2] | Kd [3] | Compound |
| --- | --- | --- | --- |
| 0.02 nM | 0.02 nM | – | CC(C)(Cc1ccc(N=[N+]=[N-])c(I)c1)NCC(O)COc1cccc2[nH]c3ccccc3c12 (stereo not given) |
| 0.02 nM | 0.02 nM | – | CC(C)(Cc1ccc(N=[N+]=[N-])cc1)NCC(O)COc1ccc(I)c2[nH]c3ccccc3c12 (stereo not given) |
| – | – | 0.1 nM | CC(C)NCC(O)COc1cccc2[nH]c3ccccc3c12 (stereo not given) [CARAZOLOL] |
